Laboratory results taken from patent publication EP1285918A1, “C7 Ester substituted taxanes as antitumor agents” (Florida State University Research Foundation, Inc., priority 2001, dated 2003).
Like-named read-outs stand apart in the source and are kept apart here.

Columns and labels:
[1] = system: DU 145 Human Prostate Carcinoma Xenografts; details: DU145; for MDS (n) / Complete Response / Partial Response / Stable Disease / Survivors / Mean Score / Toxic Deaths: i.v. qd x 1 (mg/kg: Taxol 24, 1351 107.6, 1393 72.6, 1401 107.6, 1418 107.6, 1424 195.1); for MDS (n) / Complete Response / Partial Response / Stable Disease / Survivors / Toxic Deaths: 5 mice/group, Day 91; for MDS (n): 1.5 g cut-off; for Mean Score: tumor score 1 to 10, group mean
Method: (§1) Other antitumor compounds were similarly formulated. […] The dosing volume was 0.3 ml per 20 g mouse.
Male NCr-nude mice (implanted subcutaneously with 1 mm^3 DU145 prostate carcinoma fragments in the flank) were sorted into treatment groups of five mice each. […] Dosing was initiated on Day 1. The antitumor compounds were given i.v. at an estimated maximum tolerated dose (MTD) appropriate for each agent on a qd x 1 schedule (single administration of compound). […] The vehicle was administered i.v. to control mice in Group 1 on the qd x 1 schedule. The study was terminated on Day 91. Treatment groups are detailed in Table 5.
The mean days of survival is the number of days after which a neoplasm reached a size of 1.5 g and the animal was euthanized. A complete response is obtained if the tumor is not palpable at the end of the study. A partial response is obtained if the tumor shrinks to a size smaller than its size on Day 1 of the study. […]

[2] = system: A375 Human Melanoma Xenografts; details: for Mean Score: tumor score 1 to 10, group mean; for MDS (n): 2.0 g cut-off
Method: as §1
Female NCr-nude mice (implanted subcutaneously with 1 mm^3 A375 melanoma in the flank) were sorted into treatment groups of six mice each, except for the Taxotere group having seven mice each. […] Dosing was initiated on Day 1. The antitumor compounds were given i.v. at an estimated maximum tolerated dose (MTD) appropriate for each agent on a qd x 1 schedule (single administration of compound). […] Taxotere was given i.v. on a qd x 1 schedule at a dose of 70 mg/kg. The vehicle was administered i.v. to control mice in Group 1 on the qd x 1 schedule. Treatment groups are detailed in Table 9. The study was terminated on Day 60.
The results are summarized in Table 10 and include mean days of survival (MDS), number of toxic deaths, number of survivors, number of complete or partial responses, and number with stable disease. The mean days of survival is the number of days after which a tumor reached a size of 2.0 g and the animal was euthanized. A complete response is obtained if the tumor is not palpable at the end of the study. A partial response is obtained if the tumor shrinks to a size smaller than its size on Day 1 of the study. […]

[3] = system: Panc-1 Human Pancreatic Carcinoma Xenografts; details: for mean group weight losses / tolerability: mouse, in vivo
Method: (§2) Other antitumor compounds were similarly formulated. […] The dosing volume was 0.3 mL per 20 g mouse.
Female NCr-nude mice (6-8 weeks of age, implanted subcutaneously with 1 mm^3 Panc-1 pancreatic carcinoma fragments in the flank) were sorted into treatment groups of six mice each. […] Dosing was initiated on Day 1. The antitumor compounds were given i.v. at an estimated maximum tolerated dose (MTD) appropriate for each agent on a qd x 1 schedule (single administration of compound). […] Taxotere was given i.v. at a dose of 70 mg/kg on a qd x 1 schedule. The vehicle was given i.v. to control mice in Group 1 in each test on Day 1 (qd x 1) schedule. Treatment groups are detailed in Table 12. The study was terminated on Day 63.
The mean days of survival is the number of days after which a neoplasm reached a size of 1.5 g and the animal was euthanized. A complete response is obtained if the tumor is not palpable at the end of the study. A partial response is obtained if the tumor shrinks to a size smaller than its size on Day 1 of the study.

[4] = system: VM46 Human Colon Carcinoma Xenografts; details: for Complete Response / Mean Score / Partial Response / Stable Disease / Survivors / Toxic Deaths / MDS (n): 6 mice/group; for MDS (n): days until tumor reached 1.5 g; for maximal mean group weight losses / tolerability: mouse, in vivo, iv
Method: as §2
Female NCr-nude mice (6-8 weeks of age, implanted subcutaneously with 1 mm^3 VM46 colon carcinoma fragments in the flank) were sorted into treatment groups of six mice each. […] Dosing was initiated on Day 1. The antitumor compounds were given i.v. at an estimated maximum tolerated dose (MTD) appropriate for each agent on a qd x 1 schedule (single administration of compound). […] Taxotere was given i.v. at a dose of 70 mg/kg on a qd x 1 schedule. The vehicle was given i.v. to control mice in Group 1 in each test on Day 1 (qd x 1) schedule. Treatment groups are detailed in Table 13. The VM46 study ended on Day 64.
The results are summarized in table 14 and include mean days of survival (MDS), number of toxic deaths, number of survivors, number of complete or partial responses, and number with stable disease. The mean days of survival is the number of days after which a neoplasm reached a size of 1.5 g and the animal was euthanized. A complete response is obtained if the tumor is not palpable at the end of the study. A partial response is obtained if the tumor shrinks to a size smaller than its size on Day 1 of the study. […]

[5] = A375, i.v. qd x 1 (mg/kg: Taxol 24, 1351 107.6, 1393 72.6, 1401 107.6, 1418 107.6, 1424 195.1, Taxotere 70), Day 60
[6] = A375, i.v. qd x 1 (mg/kg: Taxol 24, 1351 107.6, 1393 72.6, 1401 107.6, 1418 107.6, 1424 195.1, Taxotere 70)
[7] = Panc-1, i.v. qd x 1 (mg/kg: Taxol 24, 1351 75.32, 1393 72.6, 1401 107.6, 1418 107.6, 1424 195.1), 6 mice/group
[8] = i.v. qd x 1 at estimated MTD, 6 mice/group, study end Day 63
[9] = 107.6 mg/kg i.v. qd x 1, study end Day 64
[10] = VM46, i.v. qd x 1 at estimated MTD

Structure (SMILES)	Complete Response [1]	Partial Response [1]	Stable Disease [1]	Survivors [1]	Mean Score [1]	Complete Response [2, 5]	Partial Response [2, 5]	Survivors [2, 5]	Mean Score [2, 6]	Survivors [3, 8]	Toxic Deaths [3, 8]	mean group weight losses ([3]; iv)	Complete Response [4, 9]	Mean Score [4, 9]	Partial Response [4, 9]	Stable Disease [4, 9]	Survivors [4, 9]	Toxic Deaths [4, 9]	MDS (n) [4, 9]	maximal mean group weight losses [4]	other results
CCC(=O)O[C@H]1C[C@H]2OC[C@@]2(OC(C)=O)[C@H]2[C@H](OC(=O)c3ccccc3)[C@]3(O)C[C@H](OC(=O)[C@H](O)[C@H](C=C(C)C)NC(=O)OC(C)(C)C)C(C)=C([C@@H](O)C(=O)[C@]12C)C3(C)C [Compound 1351]	0	1	0	1	2.6 ± 1.5	0	0	0	0±0	4	0	3-13%	0	4.5 ± 1.4	1	2	3	0	43.7 ± 3.4 (3) days	3-14%	mortality rate ([1]; 1351 107.6 mg/kg i.v. qd x 1): 40%; weight loss in a number of the treated mice prior to their deaths ([1]; 1351 107.6 mg/kg i.v. qd x 1): over 20%; MDS (n) [1]: 62.6 ± 17.5 (2) days; Stable Disease [2, 5]: 0; mean group weight losses ([2]; mouse, in vivo, iv): 20-30%; Toxic Deaths [3, 7]: no toxic deaths; Complete Response [3, 8]: 1; Mean Score [3, 8]: 5.7 ± 1.3; Partial Response [3, 8]: 1; Stable Disease [3, 8]: 2; MDS (n) ([3]; i.v. qd x 1 at estimated MTD, 6 mice/group, study end Day 63, days until tumor reached 1.5 g): 42.5 ± 10.2 days; tolerability ([3]; iv): well-tolerated; Toxic Deaths [4, 10]: no toxic deaths; tolerability [4]: quite well-tolerated
CCC(=O)O[C@H]1C[C@H]2OC[C@@]2(OC(C)=O)[C@H]2[C@H](OC(=O)c3ccccc3)[C@]3(O)C[C@H](OC(=O)[C@H](O)[C@@H](NC(=O)OC(C)(C)C)c4ccoc4)C(C)=C([C@@H](O)C(=O)[C@]12C)C3(C)C [Compound 1401]	1	0	0	1	3.6 ± 1.7	0	0	0	2±0	6	0	3-13%	0	2.5 ± 1.3	1	0	1	1	46.1 ± 5.9 (4) days	under 12%	MDS (n) [1]: 72.6 ± 8.7 (3) days; Toxic Deaths [1]: 1; MDS (n) [2, 5]: 22.2 ± 1.1 (6) days; Stable Disease [2, 5]: 0; Toxic Deaths [2, 5]: 0; Toxic Deaths [3, 7]: no toxic deaths; Complete Response [3, 8]: 0; Mean Score [3, 8]: 6.8 ± 0.8; Partial Response [3, 8]: 3; Stable Disease [3, 8]: 3; tolerability ([3]; iv): well-tolerated; Toxic Deaths [4, 10]: not more than one; tolerability [4]: Acceptable toxicity
CCC(=O)O[C@H]1C[C@H]2OC[C@@]2(OC(C)=O)[C@H]2[C@H](OC(=O)c3ccccc3)[C@]3(O)C[C@H](OC(=O)[C@H](O)[C@@H](NC(=O)OC(C)(C)C)c4cccs4)C(C)=C([C@@H](O)C(=O)[C@]12C)C3(C)C [Compound 1418]	1	2	1	4	7.2 ± 1.2	0	1	2	4 ± 1.3	6	0	3-13%	0	3.5 ± 0.8	0	3	3	0	41.7 ± 3.4 (3) days	3-14%	Toxic Deaths [1]: 0; total response rate ([1]; i.v. qd x 1 at estimated MTD): ≥ 50%; MDS (n) [2, 5]: 34.5 ± 3.1 (3) days; survival extension compared to Group 1 controls ([2]; A375, i.v. qd x 1 (mg/kg: Taxol 24, 1393 72.6, 1418 107.6, Taxotere 70)): 140%; Partial Responses ([3]; Panc-1, i.v. qd x 1 (mg/kg: 1393 72.6, 1418 107.6), 6 mice/group, Day 63): 5; Complete Response ([3]; iv, 1512 h): 0; Mean Score ([3]; iv, 1512 h): 8 ± 0.6; Partial Response ([3]; iv, 1512 h): 5; Stable Disease ([3]; iv, 1512 h): 1
